Measurements from a compilation of properties of binary mixtures (doi:10.1021/jp911536z).

Test: xn = mol fraction of the nth substance listed
Conditions: 298.15 K, 100 kPa

CCn1cc[n+](C)c1.C[C@H](O)C(=O)[O-] + O
Conditions | electrical conductivity [S/m] | speed of sound [m/s] | viscosity [mPa·s]
x1 = 0.0056 | 0.329 | – | –
x1 = 0.0097 | – | 1567.3 | 1.17
x1 = 0.0197 | – | 1631 | 1.44
x2 = 0.0056 | – | 1731.4 | –
x2 = 0.0097 | 1.76 | – | –
x2 = 0.0197 | 2.71 | – | –
x2 = 0.0304 | 3.15 | – | –
x2 = 0.0374 | 3.28 | – | –
x2 = 0.0464 | – | 1735.1 | 110
x2 = 0.0739 | 3.02 | – | –
x2 = 0.094 | 2.75 | – | –
x2 = 0.0982 | – | 1738.6 | 60.5
x2 = 0.2881 | 1.07 | – | –
x2 = 0.4781 | 0.597 | – | –
x2 = 0.5219 | – | 1797.9 | 18.5
x2 = 0.6862 | 0.481 | – | –
x2 = 0.7119 | – | 1826.6 | 11.3
x2 = 0.9018 | 0.259 | – | –
x2 = 0.906 | – | 1842.9 | 5.65
x2 = 0.9261 | – | 1819.8 | 4.36
x2 = 0.9536 | 0.289 | – | –
x2 = 0.9547 | – | 1748.4 | 2.68
x2 = 0.9626 | – | 1719.9 | 2.23
